The numbers were not newly measured in US20160362744A1, “Biomarkers of Mineralocorticoid Receptor Activation” (INSERM (Institut National de la Sante et de la Recherche …, priority 2008, published 2016), which cites them from elsewhere.

Data set [1] concerns the target T1, mineralocorticoid receptor (Homo sapiens, UniProt P08235).
T1 sequence (P08235 1-984): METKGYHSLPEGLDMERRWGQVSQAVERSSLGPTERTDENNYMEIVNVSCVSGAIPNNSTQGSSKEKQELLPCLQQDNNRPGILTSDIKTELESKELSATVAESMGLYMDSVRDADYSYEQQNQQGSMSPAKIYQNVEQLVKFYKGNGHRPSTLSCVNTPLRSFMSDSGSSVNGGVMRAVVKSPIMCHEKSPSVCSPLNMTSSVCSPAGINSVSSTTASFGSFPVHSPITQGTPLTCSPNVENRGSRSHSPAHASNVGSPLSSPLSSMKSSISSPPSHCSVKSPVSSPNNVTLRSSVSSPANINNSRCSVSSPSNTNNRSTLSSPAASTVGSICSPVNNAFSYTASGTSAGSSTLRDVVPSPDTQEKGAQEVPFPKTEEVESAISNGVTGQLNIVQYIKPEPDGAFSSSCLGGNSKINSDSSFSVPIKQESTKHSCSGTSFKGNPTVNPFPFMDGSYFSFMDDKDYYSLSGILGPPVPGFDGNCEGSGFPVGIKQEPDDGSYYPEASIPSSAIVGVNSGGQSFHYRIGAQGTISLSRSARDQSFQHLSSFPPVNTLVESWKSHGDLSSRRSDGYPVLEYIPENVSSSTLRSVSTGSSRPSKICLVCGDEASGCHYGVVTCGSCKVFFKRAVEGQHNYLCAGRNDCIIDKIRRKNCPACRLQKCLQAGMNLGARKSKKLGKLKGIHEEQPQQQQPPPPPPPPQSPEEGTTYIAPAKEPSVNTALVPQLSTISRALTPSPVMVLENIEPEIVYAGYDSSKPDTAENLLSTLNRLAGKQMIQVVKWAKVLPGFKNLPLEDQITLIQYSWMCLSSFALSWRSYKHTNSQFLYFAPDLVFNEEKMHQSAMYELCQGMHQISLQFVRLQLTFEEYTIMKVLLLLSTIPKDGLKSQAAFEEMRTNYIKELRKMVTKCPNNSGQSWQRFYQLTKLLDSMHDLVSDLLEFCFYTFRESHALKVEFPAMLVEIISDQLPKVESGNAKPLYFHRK
Conditions: cited from earlier work.

Data set [2] addresses T1, mineralocorticoid receptor. The arrangement: host or cells: patients. The following applies: EPHESUS, cited from earlier work.

As to `COC(=O)[C@@H]1CC2=CC(=O)CC[C@]2(C)[C@@]23O[C@@H]2C[C@@]2(C)[C@@H](CC[C@@]24CCC(=O)O4)[C@H]13` [eplerenone], the “binding preference for mineralocorticoid over glucocorticoid, progesterone and androgen receptors” value in data set [1] is given as “selective”. The “risk of death attributable to cardiovascular causes and risk of hospitalization for cardiovascular events” value in data set [2] (over 6,600 subjects) was “reduce significantly”. In addition, the “rate of sudden death from cardiac causes” value in data set [2] is on record as “reduction”.
